Where two headings read alike, the source gives them in different places.
How the values were obtained:
[1] = molecular target: T1, D3 (h) (Homo sapiens, UniProt P35462); assay: Competition assay to measure binding affinity at D3 receptor; details: test ligand 10 μM; [3H]methylspiperone […]
T1 construct: host or cells: CHO cells

[2] = molecular target: T2, DAT (h) (Homo sapiens, UniProt Q01959); assay: Competition assay to measure binding affinity at dopamine transporter (DAT); details: test ligand 10 μM; [3H]BTCP 4 nM
T2 construct: host or cells: CHO cells
T2 sequence (Q01959 whole entry): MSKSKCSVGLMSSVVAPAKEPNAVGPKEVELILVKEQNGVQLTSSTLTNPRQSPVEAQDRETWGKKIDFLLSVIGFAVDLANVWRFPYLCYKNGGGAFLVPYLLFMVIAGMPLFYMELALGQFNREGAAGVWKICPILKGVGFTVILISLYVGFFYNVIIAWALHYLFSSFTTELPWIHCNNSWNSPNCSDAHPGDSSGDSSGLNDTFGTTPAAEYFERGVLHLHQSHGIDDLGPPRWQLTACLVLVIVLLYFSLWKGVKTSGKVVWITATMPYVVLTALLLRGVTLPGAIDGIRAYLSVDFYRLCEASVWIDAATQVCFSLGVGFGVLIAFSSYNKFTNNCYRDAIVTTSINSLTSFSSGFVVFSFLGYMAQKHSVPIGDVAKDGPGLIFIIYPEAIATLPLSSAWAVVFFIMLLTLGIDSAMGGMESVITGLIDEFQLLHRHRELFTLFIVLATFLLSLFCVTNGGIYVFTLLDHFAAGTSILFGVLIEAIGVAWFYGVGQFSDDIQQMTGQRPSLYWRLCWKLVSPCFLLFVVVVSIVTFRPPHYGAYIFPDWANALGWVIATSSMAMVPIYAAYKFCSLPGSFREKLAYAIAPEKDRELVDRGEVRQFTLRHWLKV

[3] = molecular target: T3, 5-HT2B (h) (Homo sapiens, UniProt P41595); assay: Competition assay to measure binding affinity at 5-HT2B receptor; details: test ligand 10 μM; [3H]mesulergine 2 nM
T3 construct: host or cells: CHO cells
T3 sequence (P41595 whole entry): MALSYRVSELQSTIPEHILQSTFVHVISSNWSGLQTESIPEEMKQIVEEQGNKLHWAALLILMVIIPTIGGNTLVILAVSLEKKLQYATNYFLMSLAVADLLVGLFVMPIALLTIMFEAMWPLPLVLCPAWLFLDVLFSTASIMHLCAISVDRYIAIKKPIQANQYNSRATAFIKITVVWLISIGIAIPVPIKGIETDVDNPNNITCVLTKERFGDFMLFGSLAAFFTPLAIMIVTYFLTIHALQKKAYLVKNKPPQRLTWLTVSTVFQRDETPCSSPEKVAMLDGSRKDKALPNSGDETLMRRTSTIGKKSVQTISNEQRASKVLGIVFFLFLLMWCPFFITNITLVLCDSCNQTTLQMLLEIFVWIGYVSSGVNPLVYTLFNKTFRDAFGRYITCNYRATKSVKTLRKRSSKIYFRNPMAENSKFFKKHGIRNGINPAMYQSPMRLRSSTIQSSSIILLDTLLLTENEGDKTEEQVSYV

[4] = molecular target: T4, D2 (h) (Homo sapiens, UniProt P14416); assay: Competition assay to measure binding affinity at D2L receptor; details: test ligand 10 μM; [3H]methylspiperone 0.3 nM
T4 construct: host or cells: HEK-293 cells
T4 sequence (P14416 whole entry): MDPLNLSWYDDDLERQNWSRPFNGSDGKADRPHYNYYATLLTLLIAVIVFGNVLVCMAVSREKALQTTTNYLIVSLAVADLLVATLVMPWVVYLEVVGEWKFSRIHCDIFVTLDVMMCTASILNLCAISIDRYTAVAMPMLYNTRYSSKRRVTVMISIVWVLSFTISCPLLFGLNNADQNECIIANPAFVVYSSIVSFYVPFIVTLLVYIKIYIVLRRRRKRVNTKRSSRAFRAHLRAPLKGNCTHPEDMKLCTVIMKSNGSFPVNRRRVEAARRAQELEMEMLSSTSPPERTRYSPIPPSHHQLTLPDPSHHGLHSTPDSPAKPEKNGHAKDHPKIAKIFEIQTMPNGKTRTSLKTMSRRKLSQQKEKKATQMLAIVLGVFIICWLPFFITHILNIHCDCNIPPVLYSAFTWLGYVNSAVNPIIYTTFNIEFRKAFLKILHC

[5] = molecular target: T5, 5-HT1D (r) (Rattus norvegicus, UniProt P28565); assay: Competition assay to measure binding affinity at 5-HT1D receptor; details: test ligand 10 μM; [3H]serotonin 1 nM
T5 construct: host or cells: CHO cells
T5 sequence (P28565 whole entry): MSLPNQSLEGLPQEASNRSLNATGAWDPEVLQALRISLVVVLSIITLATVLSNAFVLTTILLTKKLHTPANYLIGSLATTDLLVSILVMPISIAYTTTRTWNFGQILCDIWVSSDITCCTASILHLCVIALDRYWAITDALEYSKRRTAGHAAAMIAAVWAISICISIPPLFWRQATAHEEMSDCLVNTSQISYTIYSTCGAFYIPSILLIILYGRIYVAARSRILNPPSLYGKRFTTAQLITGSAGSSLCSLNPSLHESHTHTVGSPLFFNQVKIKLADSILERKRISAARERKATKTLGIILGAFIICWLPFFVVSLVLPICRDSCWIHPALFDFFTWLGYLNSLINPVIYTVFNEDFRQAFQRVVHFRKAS

[6] = molecular target: 5-HT2A receptor (Homo sapiens, UniProt P28223); assay: 5-HT2A receptor radioligand competition assay (SPA)
Sequence of 5-HT2A receptor (P28223 whole entry): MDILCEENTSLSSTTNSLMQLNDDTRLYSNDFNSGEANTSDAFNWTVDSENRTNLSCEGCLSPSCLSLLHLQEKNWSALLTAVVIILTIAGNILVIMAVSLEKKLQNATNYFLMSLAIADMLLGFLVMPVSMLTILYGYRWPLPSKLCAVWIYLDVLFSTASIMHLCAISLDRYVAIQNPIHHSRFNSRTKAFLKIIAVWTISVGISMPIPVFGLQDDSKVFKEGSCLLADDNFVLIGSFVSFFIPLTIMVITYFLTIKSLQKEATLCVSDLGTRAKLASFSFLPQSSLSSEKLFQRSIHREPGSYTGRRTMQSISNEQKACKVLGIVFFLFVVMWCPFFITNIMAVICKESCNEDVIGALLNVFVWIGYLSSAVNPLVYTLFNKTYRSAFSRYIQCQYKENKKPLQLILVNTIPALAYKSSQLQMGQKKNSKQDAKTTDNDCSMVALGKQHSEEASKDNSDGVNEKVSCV

[7] = molecular target: T6, human serotonin transporter (SERT) (Homo sapiens, UniProt P31645); assay: biochemical; format: binding
T6 construct: purchased PerkinElmer RBHSTM400UA

[8] = molecular target: T7, MT1 (ML1A) (h) (Homo sapiens, UniProt P48039); assay: Competition assay to measure binding affinity at MT1 receptor; details: test ligand 10 μM; [125I]2-iodomelatonin 0.01 nM
T7 construct: host or cells: CHO cells
T7 sequence (P48039 whole entry): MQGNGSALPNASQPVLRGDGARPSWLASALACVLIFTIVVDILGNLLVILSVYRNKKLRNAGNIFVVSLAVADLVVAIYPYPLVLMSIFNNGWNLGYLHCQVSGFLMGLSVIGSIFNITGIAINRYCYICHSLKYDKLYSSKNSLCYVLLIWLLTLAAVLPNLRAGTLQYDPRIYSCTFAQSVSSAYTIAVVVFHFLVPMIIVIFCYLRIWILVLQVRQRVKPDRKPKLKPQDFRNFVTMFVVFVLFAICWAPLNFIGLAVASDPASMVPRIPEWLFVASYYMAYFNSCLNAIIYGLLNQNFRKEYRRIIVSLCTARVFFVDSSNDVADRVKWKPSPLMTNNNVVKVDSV

[9] = molecular target: T8, 5-HT7 (h) (Homo sapiens, UniProt P34969); assay: Competition assay to measure binding affinity at 5-HT7 receptor; details: test ligand 10 μM; [3H]LSD 4 nM
T8 construct: host or cells: HEK-293 cells
T8 sequence (P34969 whole entry): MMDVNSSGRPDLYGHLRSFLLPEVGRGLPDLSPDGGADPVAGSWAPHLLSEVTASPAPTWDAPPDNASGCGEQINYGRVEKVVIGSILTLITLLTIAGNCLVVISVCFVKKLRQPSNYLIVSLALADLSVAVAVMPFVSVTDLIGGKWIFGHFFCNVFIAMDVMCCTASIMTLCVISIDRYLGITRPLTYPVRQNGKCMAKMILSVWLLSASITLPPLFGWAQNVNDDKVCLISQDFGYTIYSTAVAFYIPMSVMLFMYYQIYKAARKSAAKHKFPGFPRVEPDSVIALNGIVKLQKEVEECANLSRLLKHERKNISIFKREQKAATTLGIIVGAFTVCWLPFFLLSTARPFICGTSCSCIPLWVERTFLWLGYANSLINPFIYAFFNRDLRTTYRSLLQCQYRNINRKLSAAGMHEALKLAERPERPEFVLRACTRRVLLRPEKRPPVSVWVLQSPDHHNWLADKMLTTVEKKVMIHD

[10] = molecular target: T9, NET (h) (Homo sapiens, UniProt P23975); assay: Competition assay to measure binding affinity at norepinephrine transporter (NET); details: test ligand 10 μM; [3H]nisoxetine 1 nM
T9 construct: host or cells: CHO cells
T9 sequence (P23975 whole entry): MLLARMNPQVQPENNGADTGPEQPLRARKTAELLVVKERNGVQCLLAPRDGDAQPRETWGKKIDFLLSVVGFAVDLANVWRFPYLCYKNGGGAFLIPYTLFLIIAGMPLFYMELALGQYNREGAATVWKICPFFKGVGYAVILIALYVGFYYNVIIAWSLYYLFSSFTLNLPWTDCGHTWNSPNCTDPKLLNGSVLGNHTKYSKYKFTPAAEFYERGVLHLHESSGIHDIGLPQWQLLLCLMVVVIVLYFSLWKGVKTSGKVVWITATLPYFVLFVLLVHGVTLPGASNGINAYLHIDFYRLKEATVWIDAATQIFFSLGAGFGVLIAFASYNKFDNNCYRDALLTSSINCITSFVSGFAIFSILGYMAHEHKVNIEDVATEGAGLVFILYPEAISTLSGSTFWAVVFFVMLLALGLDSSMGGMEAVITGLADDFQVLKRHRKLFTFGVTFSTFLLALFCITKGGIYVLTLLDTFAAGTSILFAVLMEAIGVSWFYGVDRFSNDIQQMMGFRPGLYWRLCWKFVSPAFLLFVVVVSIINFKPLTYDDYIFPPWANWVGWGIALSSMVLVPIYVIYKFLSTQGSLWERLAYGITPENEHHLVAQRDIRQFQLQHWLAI

[11] = molecular target: T10, 5-HT1B (h) (Homo sapiens, UniProt P28222); assay: Competition assay to measure binding affinity at 5-HT1B receptor; details: test ligand 10 μM; [3H]GR125743 1 nM
T10 construct: host or cells: Chem-1 (RBL) cells
T10 sequence (P28222 whole entry): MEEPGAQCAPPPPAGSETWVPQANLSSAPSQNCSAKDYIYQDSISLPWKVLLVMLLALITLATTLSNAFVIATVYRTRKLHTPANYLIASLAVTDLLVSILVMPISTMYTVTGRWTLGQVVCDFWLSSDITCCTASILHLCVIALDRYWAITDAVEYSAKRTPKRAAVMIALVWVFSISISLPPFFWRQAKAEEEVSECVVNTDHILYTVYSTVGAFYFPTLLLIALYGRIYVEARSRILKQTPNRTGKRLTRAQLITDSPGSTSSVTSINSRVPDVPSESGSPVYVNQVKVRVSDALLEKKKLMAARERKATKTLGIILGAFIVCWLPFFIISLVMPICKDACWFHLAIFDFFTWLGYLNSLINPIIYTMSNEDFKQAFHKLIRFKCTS

[12] = molecular target: T11, 5-HT1A receptor (Homo sapiens, UniProt P08908); assay: 5-HT1A receptor radioligand competition assay (SPA); format: binding
T11 construct: purchased Perkin Elmer 6110501400UA
T11 sequence (P08908 1-422): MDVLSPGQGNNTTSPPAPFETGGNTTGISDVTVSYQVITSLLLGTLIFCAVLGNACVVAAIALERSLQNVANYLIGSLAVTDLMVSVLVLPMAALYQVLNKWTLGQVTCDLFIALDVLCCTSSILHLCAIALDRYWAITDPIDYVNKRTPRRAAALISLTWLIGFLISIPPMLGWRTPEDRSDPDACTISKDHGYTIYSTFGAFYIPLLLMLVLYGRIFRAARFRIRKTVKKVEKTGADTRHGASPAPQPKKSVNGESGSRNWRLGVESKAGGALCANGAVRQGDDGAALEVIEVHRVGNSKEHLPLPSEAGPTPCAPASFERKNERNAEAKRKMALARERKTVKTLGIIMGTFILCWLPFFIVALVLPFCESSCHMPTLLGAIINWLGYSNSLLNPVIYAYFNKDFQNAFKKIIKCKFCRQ

[13] = molecular target: T12, 5-HT2C (h) (Homo sapiens, UniProt P28335); assay: Competition assay to measure binding affinity at 5-HT2C receptor; details: test ligand 10 μM; [125I](±)DOI 0.1 nM
T12 construct: host or cells: HEK-293 cells
T12 sequence (P28335 33-458): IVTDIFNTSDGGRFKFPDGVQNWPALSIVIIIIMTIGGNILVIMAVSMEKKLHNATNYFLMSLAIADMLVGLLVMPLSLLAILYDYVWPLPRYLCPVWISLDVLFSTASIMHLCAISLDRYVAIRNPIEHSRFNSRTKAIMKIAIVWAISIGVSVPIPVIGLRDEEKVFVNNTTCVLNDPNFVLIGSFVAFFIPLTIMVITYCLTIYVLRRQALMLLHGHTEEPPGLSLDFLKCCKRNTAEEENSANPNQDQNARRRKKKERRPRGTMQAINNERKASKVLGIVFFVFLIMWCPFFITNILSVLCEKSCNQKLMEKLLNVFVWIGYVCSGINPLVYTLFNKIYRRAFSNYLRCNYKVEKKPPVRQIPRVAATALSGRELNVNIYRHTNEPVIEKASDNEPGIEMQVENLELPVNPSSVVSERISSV

[14] = molecular target: T13, alpha2A (h) (Homo sapiens, UniProt P08913); assay: Competition assay to measure binding affinity at alpha2A receptor; details: test ligand 10 μM; [3H]RX 821002 1 nM; read-out: α-2A, percent of control-specific binding
T13 construct: host or cells: CHO cells
T13 sequence (P08913 1-465): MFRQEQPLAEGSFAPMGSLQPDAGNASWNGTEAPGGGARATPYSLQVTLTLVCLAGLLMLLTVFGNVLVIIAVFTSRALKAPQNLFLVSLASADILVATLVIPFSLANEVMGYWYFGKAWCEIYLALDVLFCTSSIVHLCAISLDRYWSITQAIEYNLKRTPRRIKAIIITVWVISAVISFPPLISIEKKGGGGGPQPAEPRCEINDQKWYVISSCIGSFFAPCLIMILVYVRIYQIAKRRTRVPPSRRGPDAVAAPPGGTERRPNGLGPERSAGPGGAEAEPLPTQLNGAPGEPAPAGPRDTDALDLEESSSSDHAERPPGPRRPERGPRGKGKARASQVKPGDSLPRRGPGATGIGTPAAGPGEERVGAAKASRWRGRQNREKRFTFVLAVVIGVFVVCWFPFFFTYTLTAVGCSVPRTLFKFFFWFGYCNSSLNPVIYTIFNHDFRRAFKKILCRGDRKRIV

[15] = competition with 0.5 nM 8-hydroxy-DPAT [3H], test compound 3 nM to 1 mM, read-out: 5-HT1A, Ki

T1 sequence (P35462 whole entry): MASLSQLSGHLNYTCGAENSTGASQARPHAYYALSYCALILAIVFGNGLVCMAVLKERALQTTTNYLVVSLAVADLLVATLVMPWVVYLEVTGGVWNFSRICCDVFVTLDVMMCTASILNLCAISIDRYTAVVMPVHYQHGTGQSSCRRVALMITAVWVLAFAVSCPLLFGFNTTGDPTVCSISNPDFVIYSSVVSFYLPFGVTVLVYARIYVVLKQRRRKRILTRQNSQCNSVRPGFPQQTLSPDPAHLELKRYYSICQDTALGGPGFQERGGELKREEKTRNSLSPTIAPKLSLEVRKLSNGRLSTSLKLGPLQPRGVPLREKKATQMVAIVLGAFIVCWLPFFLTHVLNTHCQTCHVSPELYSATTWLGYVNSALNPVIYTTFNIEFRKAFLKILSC

Row | Compound | D3, percent of control-specific binding [1] [%] | DAT, percent of control-specific binding [2] [%] | HT2B, percent of control-specific binding [3] [%] | D2, percent of control-specific binding [4] [%] | HT1D, percent of control-specific binding [5] [%] | Ki [6] [µM] | Ki [7] [µM] | MT1, percent of control-specific binding [8] [%] | HT7, percent of control-specific binding [9] [%] | NET, percent of control-specific binding [10] [%] | HT1B, percent of control-specific binding [11] [%] | Ki [12, 15] [µM] | HT2C, percent of control-specific binding [13] [%] | inhibition at 10 µM [14] [%] | Ki [12] [µM] | SERT binding, binding curve in words [7]
1 | CC(Cc1ccc2c(c1)OCO2)NN(C)C (centres unmarked) [A(VIII)] | 18 | 38 | 67 | 12 | 0 | 3.38 | 22.6 | 33 | 17 | 2 | 0 | 19.6 | 79 | 8 | – | –
2 | CC(Cc1ccc2c(c1)OCCO2)NC1CCC1 (centres unmarked) [A(XVII)] | 19 | 84 | 47 | 2 | 0 | 188 | 1.71 | 1 | 24 | 18 | 0 | – | 20 | 64 | 23.3 | –
3 | CC(Cc1ccc2c(c1)OCCO2)NCc1ccc2c(c1)OCO2 (centres unmarked) [A(XII)] | 58 | 92 | 86 | 26 | 24 | 26 | 2.39 | 6 | 51 | 69 | 0 | – | 31 | 66 | 1.2 | –
4 | CC(Cc1ccc2c(c1)OCO2)NCc1cc2c(cc1Br)OCO2 (centres unmarked) [A(VI)] | 42 | 79 | 99 | 39 | 47 | 5.3 | 0.475 | 20 | 67 | 55 | 0 | – | 97 | 74 | 1.52 | binds SERT
5 | CC(Cc1ccc2c(c1)OCO2)N1CC(NC(=O)OC(C)(C)C)C1 (centres unmarked) [A(IV)] | 84 | 20 | 94 | 37 | 13 | 15 | 49.8 | 3 | 79 | 15 | 15 | 1.6 | 69 | 75 | – | –
6 | CC(Cc1ccc2c(c1)OCCO2)NCc1ccccc1 (centres unmarked) [A(XXIII)] | 38 | 91 | 66 | 9 | 29 | 70 | 2.75 | 3 | 34 | 88 | 0 | – | 42 | 60 | 5.58 | –
7 | CC(Cc1ccc2c(c1)OCCO2)N1CC(NC(=O)OC(C)(C)C)C1 (centres unmarked) [A(XVI)] | 82 | 16 | 90 | 21 | 37 | 39 | 58.1 | 3 | 62 | 24 | 27 | 1.4 | 79 | 86 | – | –
8 | N#CC(Cc1ccc2c(c1)OCO2)NC1CCC1 (centres unmarked) [A(XX)] | 0 | 39 | 53 | 24 | 14 | 42.1 | 286 | 14 | 26 | 1 | 0 | 123 | 41 | 3 | – | –
